Data set [1] in a line: Stability test in human liver microsomes. The settings on record: pH 7.4; human liver microsomes 0.5 mg/mL, test compound 2 μmol/L, 37° C., 0-30 min; read-out: Hepatic intrinsic clearance, Human. The format is in vitro ADME. How it is done: (§1) Experiment was performed using the compound of Example 11, Comparative Example 1 or Comparative Example 6 as a test compound and human liver microsomes (from Xenotech), monkey liver microsomes (from Xenotech), dog liver microsomes (from Xenotech) or mouse liver microsomes (from Xenotech) as the liver microsomes.
(§2) The reagents to be used in the stability test in liver microsomes were prepared as follows. A D-glucose 6-phosphate disodium salt (hereinafter referred to as G6P) was dissolved with distilled water to prepare an aqueous solution of G6P (100 mmol/L). Glucose 6-phosphate dehydrogenase (1000 units) from Yeast (hereinafter referred to as G6PDH) was dissolved with distilled water (5 mL) to prepare an aqueous solution of G6PDH (200 units/mL). MgCl2 was dissolved with distilled water to prepare an aqueous solution of MgCl2 (100 mmol/L). […]
(§3) With respect to the chromatogram of each well obtained by LC/MS analysis or LC/MS/MS analysis, the test compound residual ratio (%) at each reaction time t (min) was calculated based on the peak area at the reaction time of 0 minute as 100%. […]

A short description of data set [2]: Stability test in monkey liver microsomes. The format is in vitro ADME. The note with it: pH 7.4; monkey liver microsomes 0.5 mg/mL, test compound 2 μmol/L, 37° C., 0-30 min; read-out: Hepatic intrinsic clearance, Monkey. How it is done: as §1, §2, §3
A general note: Microsomes from liver hold many membrane-bound enzymes, among them those of drug oxidation.

Data set [3] is described as follows: Stability test in dog liver microsomes. Type of data set: in vitro ADME. The settings on record: pH 7.4; dog liver microsomes 0.5 mg/mL, test compound 2 μmol/L, 37° C., 0-30 min; read-out: Hepatic intrinsic clearance, Dog. Here is the method: as §1, §2, §3
Data set [4] has as its system human aortic smooth muscle cells (T/G HA-VSMG). The data set is described as follows: Inducibility of cytoplasmic vacuolation in human aortic smooth muscle cells. Type of data set: cell-based. The settings on record: Concentration: 1.0 mmol/L. Here is the method: As a test compound, the compound of Example 3, 9, 11, 12 or compounds of Comparative Examples 2 to 6 were used. Canine aortic smooth muscle cells (Canine Aortic Smooth Muscle Cells, supply source: Toyobo Co., Ltd.) or human aortic smooth muscle cells of (T/G HA-VSMG, supply source: ATCC) were treated with a test compound (1.0 or 1.2 mmol/L in concentration) for 24 hours or 2 weeks. The cells were stained with HE, immunohistochemically for LAMP-2 or toluidine blue, and thereafter the presence or absence of cytoplasmic vacuolation was determined by using an optical microscope.

For data set [5], the system named is Cr1: CD (SD) rats. The data set is described as follows: Evaluation of safety in rat, two-week oral administration test. The note with it: oral. Type of data set: in vivo. How it is done:
As a test compound, the compound of Example 11 or Comparative Example 2 was used. The compound of Example 11 or Comparative Example 2 was administered orally to Cr1: CD (SD) rats (7 weeks old, female and male; from Charles River Laboratories, Inc.), for 2 weeks. Clinical observation, body weight measurement, food intake measurement, ophthalmologic examination (the compound of Example 11, alone), hematological examination, blood chemistry examination, urinalysis, bone marrow examination, pathological anatomical examination, organ weight measurement, histopathological examination and immunotoxicity test were carried out. In addition, toxicokinetics (TK) measurement was carried out on Day 1 and Day 14 after administration. It was confirmed that each test compound was exposed. The administration dose of a test compound was specified as 0, 250, 500, 1000 mg/kg/day and administration volume was specified as 10 mL/kg. As an administration solvent, phosphate-buffered saline was used for the compound of Example 11 and distilled water was used for the compound of Comparative Example 2.

Entries after “also recorded” stand apart in the source; their conditions may differ. Counter-ions that a name gives are not always drawn. A value given as a limit tells only on which side of the number the result lay.

As for `CN(C)C1CCN(C(=O)CCc2nccn2C)CC1` [Comparative Example 1, 1-(4-(dimethylamino)piperidin-1-yl)-3-(1-methyl-1H-imidazol-2-yl)propan-1-one hydrochloride], the microsomal CLint at 2 μmol/L was 1 µL/min/mg in data set [1] and 2 µL/min/mg in data set [2].

Take `CC(C)n1ccnc1CCC(=O)N1CCC(N(C)C)CC1` [Comparative Example 6, 1-(4-(dimethylamino)piperidin-1-yl)-3-(1-isopropyl-1H-imidazol-2-yl)propan-1-one hydrochloride]: the microsomal CLint at 2 μmol/L in data set [2] and in data set [3] was 6 µL/min/mg in each case.

Turning to `CN(C)C1CCN(C(=O)C[C@H](O)c2nccn2C)CC1` [Example 11, (S)-1-(4-(dimethylamino)piperidin-1-yl)-3-hydroxy-3-(1-methyl-1H-imidazol-2-yl)propan-1-one], the “Inducibility of cytoplasmic vacuolation” value is “not observed; also recorded: Absent” in data set [4] (Treatment time: 2 weeks) and “Absent” in data set [4] (Treatment time: 24 hours). In data set [5] (2 weeks), the “no observed adverse effect level” value is reported as at least 1000 mg/kg/day. For the same molecule, the “findings in examination items” value in data set [5] (up to 1000 mg/kg/day for 2 weeks) is “abnormality was not observed”.
